The target in one test is cellular cereblon (CRBN) (Homo sapiens, UniProt Q96SW2). Kind of test: NanoBRET Target Engagement Assay, competition with pomalidomide tracer in 293T.116 cells. The conditions noted are these: for NanoBRET TE 293T.116 CRBN 2 hours IP nM / NanoBRET TE 293T.116 CRBN 6 hours IP nM / NanoBRET TE 293T.116 CRBN 24 hours IP nM / IC50: 293T.116 cells. Background: Bioluminescence resonance energy transfer reports proximity on the nanometre scale.

The next test addresses mutant BRAF V600E (Homo sapiens, UniProt P15056, V600E). Kind of test: BRAF V600E HiBiT Degradation Assay in A375.10 cells. The following applies: for HiBIT-Degradation A375.10 BRAF 2 hours IP nM / DC50: A375.10 cells, 2 hours; for HiBIT-Degradation A375.10 BRAF 2 hours IP nM: inflection point of the dose-response curve; for DC50: read-out: HIBIT-Degradation A375.10 BRAF 2 hours DC50 nM; for Emax: read-out: HiBIT-Degradation A375.10 BRAF 2 hours Emax. In general terms: HiBiT is a short tag that completes a luciferase, so light tracks the accessible tagged protein.

Where [1] appears, read: NanoBRET TE 293T.116 CRBN 2 hours IC50 nM, 2 hours incubation.
[2] abbreviates: NanoBRET TE 293T.116 CRBN 6 hours IC50 nM, 6 hours incubation.
The mark [3] stands for this setting: NanoBRET TE 293T.116 CRBN 24 hours IC50 nM, 24 hours incubation.
The mark [4] stands for this setting: read-out: NanoBRET TE 293T.116 CRBN 2 hours Emax.
Where [5] appears, read: read-out: NanoBRET TE 293T.116 CRBN 6 hours Emax.
Where [6] appears, read: read-out: NanoBRET TE 293T.116 CRBN 24 hours Emax.

Read-outs that look alike come from different tables or passages of the source. A value given as a limit tells only on which side of the number the result lay.

What is called IC50 is the point on the concentration scale where inhibition reaches its midpoint. High values mean lower potency, low ones higher potency. As usually defined, the Emax is the size of the effect at its maximum, as opposed to the concentration needed. The DC50 is the concentration giving 50% degradation.

As for `O=C1CCC(Nc2ccc(C3CCNCC3)c(OS(=O)(=O)F)c2)C(=O)N1` (stereo not drawn) [Compound A-31, 5-((2,6-dioxopiperidin-3-yl)amino)-2-(piperidin-4-yl)phenyl sulfurofluoridate], the “NanoBRET TE 293T.116 CRBN 2 hours IP nM” value on cellular cereblon (CRBN) (2 hours incubation) was “*** (<= 1 μM is ***)”. In addition, the “NanoBRET TE 293T.116 CRBN 6 hours IP nM” value at cellular cereblon (CRBN) (6 hours incubation) was “*** (<= 1 μM is ***)”. Further, the “NanoBRET TE 293T.116 CRBN 24 hours IP nM” value at cellular cereblon (CRBN) (24 hours incubation) is recorded as “*** (<= 1 μM is ***)”. Besides, the IC50 on cellular cereblon (CRBN) (setting [1]), at cellular cereblon (CRBN) (setting [2]) and on cellular cereblon (CRBN) (setting [3]) was less than 1000 nM in each case. For the same compound, the Emax on cellular cereblon (CRBN) (setting [4]), on cellular cereblon (CRBN) (setting [5]) and on cellular cereblon (CRBN) (setting [6]) was less than 50% throughout.
As for `O=C1NC(=O)C2(Nc3ccc(S(=O)(=O)F)cc3)CC1C2` [Compound A-33, 4-((2,4-dioxo-3-azabicyclo[3.1.1]heptan-1-yl)amino)benzenesulfonyl fluoride], the “NanoBRET TE 293T.116 CRBN 2 hours IP nM” value at cellular cereblon (CRBN) (2 hours incubation) was “** (<10 μM and >1 μM is **)”. Also, the “NanoBRET TE 293T.116 CRBN 6 hours IP nM” value on cellular cereblon (CRBN) (6 hours incubation) is “** (<10 μM and >1 μM is **)”. Also, the “NanoBRET TE 293T.116 CRBN 24 hours IP nM” value at cellular cereblon (CRBN) (24 hours incubation) was “** (<10 μM and >1 μM is **)”. In addition, the IC50 on cellular cereblon (CRBN) (setting [1]), at cellular cereblon (CRBN) (setting [2]) and on cellular cereblon (CRBN) (setting [3]) was 1000 to 10000 nM each time. Moreover, the Emax on cellular cereblon (CRBN) (setting [4]), at cellular cereblon (CRBN) (setting [5]) and at cellular cereblon (CRBN) (setting [6]) was less than 50% in each case.
On to `O=C1NC(=O)C2(c3ccc(S(=O)(=O)F)cc3)CC1C2` [Compound A-34, 4-(2,4-dioxo-3-azabicyclo[3.1.1]heptan-1-yl)benzenesulfonyl fluoride], for which the “NanoBRET TE 293T.116 CRBN 2 hours IP nM” value at cellular cereblon (CRBN) (2 hours incubation) is “** (<10 μM and >1 μM is **)”. Also, the “NanoBRET TE 293T.116 CRBN 6 hours IP nM” value on cellular cereblon (CRBN) (6 hours incubation) is “** (<10 μM and >1 μM is **)”. Further, on cellular cereblon (CRBN) (24 hours incubation), the “NanoBRET TE 293T.116 CRBN 24 hours IP nM” value was “* (>=10 μM is *)”. In addition, the IC50 is 1000 to 10000 nM on cellular cereblon (CRBN) (setting [1]), 1000 to 10000 nM at cellular cereblon (CRBN) (setting [2]) and more than 10000 nM on cellular cereblon (CRBN) (setting [3]). In addition, the Emax at cellular cereblon (CRBN) (setting [4]) is less than 50%; at cellular cereblon (CRBN) (setting [5]) it was less than 50%; at cellular cereblon (CRBN) (setting [6]), more than 80%.
Consider `O=C1CCC(c2ccc(N3CCNCC3)c(OS(=O)(=O)F)c2)C(=O)N1` (stereo not drawn) [Compound A-36, 5-(2,6-dioxopiperidin-3-yl)-2-(piperazin-1-yl)phenyl sulfurofluoridate], for which the “NanoBRET TE 293T.116 CRBN 2 hours IP nM” value on cellular cereblon (CRBN) (2 hours incubation) is listed as “*** (<= 1 μM is ***)”. Also, the “NanoBRET TE 293T.116 CRBN 6 hours IP nM” value on cellular cereblon (CRBN) (6 hours incubation) is reported as “*** (<= 1 μM is ***)”. Moreover, at cellular cereblon (CRBN) (24 hours incubation), the “NanoBRET TE 293T.116 CRBN 24 hours IP nM” value was “*** (<= 1 μM is ***)”. Moreover, the IC50 at cellular cereblon (CRBN) (setting [1]), on cellular cereblon (CRBN) (setting [2]) and on cellular cereblon (CRBN) (setting [3]) was less than 1000 nM throughout. For the same compound, the Emax at cellular cereblon (CRBN) (setting [4]), at cellular cereblon (CRBN) (setting [5]) and on cellular cereblon (CRBN) (setting [6]) was less than 50% each time.
As for `O=C1CCC(Oc2ccc(C3CCNCC3)c(S(=O)(=O)F)c2)C(=O)N1` (stereo not drawn) [Compound A-38, 5-((2,6-dioxopiperidin-3-yl)oxy)-2-(piperidin-4-yl)benzenesulfonyl fluoride], the “NanoBRET TE 293T.116 CRBN 2 hours IP nM” value at cellular cereblon (CRBN) (2 hours incubation) is listed as “*** (<= 1 μM is ***)”. Besides, the “NanoBRET TE 293T.116 CRBN 6 hours IP nM” value on cellular cereblon (CRBN) (6 hours incubation) is “*** (<= 1 μM is ***)”. Besides, the “NanoBRET TE 293T.116 CRBN 24 hours IP nM” value on cellular cereblon (CRBN) (24 hours incubation) is listed as “*** (<= 1 μM is ***)”. Further, the IC50 on cellular cereblon (CRBN) (setting [1]), on cellular cereblon (CRBN) (setting [2]) and on cellular cereblon (CRBN) (setting [3]) was less than 1000 nM each time. Besides, the Emax at cellular cereblon (CRBN) (setting [4]), at cellular cereblon (CRBN) (setting [5]) and at cellular cereblon (CRBN) (setting [6]) was less than 50% each time.
With `O=C1CCN(c2ccc(N3CCNCC3)c(OS(=O)(=O)F)c2)C(=O)N1` [Compound A-39, 5-(2,4-dioxotetrahydropyrimidin-1(2H)-yl)-2-(piperazin-1-yl)phenyl sulfurofluoridate], on cellular cereblon (CRBN) (2 hours incubation), the “NanoBRET TE 293T.116 CRBN 2 hours IP nM” value is given as “* (>=10 μM is *)”. The compound further had an IC50 on cellular cereblon (CRBN) (setting [1]) of more than 10000 nM. Further, the Emax at cellular cereblon (CRBN) (setting [4]) is 50 to 80%.
On to `O=C1CCC(CNc2cccc(OS(=O)(=O)F)c2)C(=O)N1` (stereo not drawn) [Compound A-40, 3-(((2,6-dioxopiperidin-3-yl)methyl)amino)phenyl sulfurofluoridate], for which the “NanoBRET TE 293T.116 CRBN 2 hours IP nM” value on cellular cereblon (CRBN) (2 hours incubation) is reported as “* (>=10 μM is *)”. Also, the “NanoBRET TE 293T.116 CRBN 6 hours IP nM” value on cellular cereblon (CRBN) (6 hours incubation) is “* (>=10 μM is *)”. Besides, the “NanoBRET TE 293T.116 CRBN 24 hours IP nM” value on cellular cereblon (CRBN) (24 hours incubation) was “** (<10 μM and >1 μM is **)”. The IC50 on cellular cereblon (CRBN) (setting [1]) is more than 10000 nM; at cellular cereblon (CRBN) (setting [2]), 1000 to 10000 nM; on cellular cereblon (CRBN) (setting [3]), 1000 to 10000 nM. Moreover, the results for the Emax at cellular cereblon (CRBN) (setting [4]), at cellular cereblon (CRBN) (setting [5]) and on cellular cereblon (CRBN) (setting [6]) were 50 to 80%, less than 50% and less than 50%, respectively.
Take `O=C1CCN(c2ccc(N3CCNCC3)c(OS(=O)(=O)F)c2)C(=O)N1` [drawing 1142]: the “NanoBRET TE 293T.116 CRBN 6 hours IP nM” value at cellular cereblon (CRBN) (6 hours incubation) was “* (>=10 μM is *)”. Also, the IC50 at cellular cereblon (CRBN) (setting [2]) lay in the range of 1000 to 10000 nM. Moreover, the Emax at cellular cereblon (CRBN) (setting [5]) was less than 50%.
Turning to `O=C1CCN(c2ccc(N3CCNCC3)c(OS(=O)(=O)F)c2)C(=O)N1` [drawing 1166], the “NanoBRET TE 293T.116 CRBN 24 hours IP nM” value on cellular cereblon (CRBN) (24 hours incubation) was “** (<10 μM and >1 μM is **)”. This compound also showed an IC50 at cellular cereblon (CRBN) (setting [3]) of 1000 to 10000 nM. For the same compound, the Emax on cellular cereblon (CRBN) (setting [6]) was less than 50%.
`CCN(C)S(=O)(=O)Nc1ccc(F)c(Oc2ccc3ncn([C@@H]4COC5(CCN(C(=O)CN6CCC(c7ccc(C8CCC(=O)NC8=O)cc7OS(=O)(=O)F)CC6)CC5)C4)c(=O)c3c2)c1C#N` (stereo partly drawn) [drawing 1189]: at mutant BRAF V600E, the “HiBIT-Degradation A375.10 BRAF 2 hours IP nM” value is “*** (<= 1 μM is)”, the DC50 was in the range of 1000 to 10000 nM and the Emax was 60 to 95%.
Turning to `CCN(C)S(=O)(=O)Nc1ccc(F)c(Oc2ccc3ncn([C@H]4COC5(CCN(C(=O)CN6CCC(c7ccc(C8CCC(=O)NC8=O)cc7OS(=O)(=O)F)CC6)CC5)C4)c(=O)c3c2)c1C#N` (stereo partly drawn) [drawing 1190], on mutant BRAF V600E, the “HiBIT-Degradation A375.10 BRAF 2 hours IP nM” value is reported as “*** (<= 1 μM is)”, the DC50 is less than 1000 nM and the Emax was less than 60%.
Consider `CCN(C)S(=O)(=O)Nc1ccc(F)c(Oc2ccc3ncn([C@H]4COC5(CCN(C(=O)CN6CCN(c7ccc(C8CCC(=O)NC8=O)cc7OS(=O)(=O)F)CC6)CC5)C4)c(=O)c3c2)c1C#N` (stereo partly drawn) [drawing 1191], for which, at mutant BRAF V600E, the “HiBIT-Degradation A375.10 BRAF 2 hours IP nM” value was “*** (<= 1 μM is)”, the DC50 was 1000 to 10000 nM and the Emax is less than 60%.
In the same order, the values of `CCN(C)S(=O)(=O)Nc1ccc(F)c(Oc2ccc3ncn([C@@H]4COC5(CCN(C(=O)CN6CCC(c7ccc(N8CCC(=O)NC8=O)cc7OS(=O)(=O)F)CC6)CC5)C4)c(=O)c3c2)c1C#N` [drawing 1192] are “* (>=10 μM is *)”, more than 10000 nM and more than 95%.
As for `CCN(C)S(=O)(=O)Nc1ccc(F)c(Oc2ccc3ncn([C@H]4COC5(CCN(C(=O)CN6CCC(c7ccc(N8CCC(=O)NC8=O)cc7OS(=O)(=O)F)CC6)CC5)C4)c(=O)c3c2)c1C#N` [drawing 1193], at mutant BRAF V600E, the “HiBIT-Degradation A375.10 BRAF 2 hours IP nM” value is on record as “* (>=10 μM is *)”, the DC50 is more than 10000 nM and the Emax was more than 95%.
Regarding `CCN(C)S(=O)(=O)Nc1ccc(F)c(Oc2ccc3ncn([C@H]4COC5(CCN(C(=O)CN6CCN(c7ccc(N8CCC(=O)NC8=O)cc7OS(=O)(=O)F)CC6)CC5)C4)c(=O)c3c2)c1C#N` [drawing 1194], at mutant BRAF V600E, the “HiBIT-Degradation A375.10 BRAF 2 hours IP nM” value was “* (>=10 μM is *)”, the DC50 was more than 10000 nM and the Emax was more than 95%.
For `CCN(C)S(=O)(=O)Nc1ccc(F)c(Oc2ccc3ncn([C@@H]4COC5(CCN(C(=O)CN6CCN(c7ccc(N8CCC(=O)NC8=O)cc7OS(=O)(=O)F)CC6)CC5)C4)c(=O)c3c2)c1C#N` [drawing 1195], on mutant BRAF V600E, the “HiBIT-Degradation A375.10 BRAF 2 hours IP nM” value was “* (>=10 μM is *)”, the DC50 is more than 10000 nM and the Emax lay within 60 to 95%.

The values above are taken from patent US20260274856A1, “COVALENT CEREBLON LIGANDS” (C4 THERAPEUTICS, INC., priority 2023, published 2026).
